Measured values: US20170190726A9, “PRODRUG FOR RELEASE OF CISPLATIN AND CYCLOOXYGENASE INHIBITOR” (priority 2013, published 2017)

Key:
[1] = tested on: PC3 cells; assay: Apoptosis detection by annexin V/PI assay; type: cell-based, Human; conditions: 25 μM, 6 h
Excerpt: High expression of COX-2 is found in various cancers, however, for PCa cell lines as well as tissue, contradictory results exist. We therefore tested anti-proliferative properties of Platin-A on androgen-responsive LNCaP and androgenunresponsive PC3 and DU145 PCa cells that differ in their malignant potentials. […] However, in LNCaP cells, Platin-A activity was better than an equimolar mixture of cisplatin and aspirin. In general, Pt(IV) compounds are less cytotoxic compared to their active Pt(II) form. […] To evaluate whether Platin-A-dependent inhibition of cancer cell proliferation is associated with apoptosis, Alexa Fluor® 488 annexin V/propidium iodide (PI) staining assay was carried out in PC3 cells and the data were analyzed by fluorescence assisted cell sorting. […]
PC3 cells were seeded at a density of 1×10^6 cells/mL on each well of a six well plate and allowed to grow overnight. […] Cell density was determined and cells were resuspended in 1× annexinVbinding buffer to 1×10^6 cells/mL preparing a sufficient volume to have 100 μL per assay. […] After the incubation period, 400 μL of 1× annexin-binding buffer was added to each sample, samples were gently mixed keeping the samples on ice, and the samples were analyzed on the flow cytometer immediately.

[2] = Aspirin release from Platin-A by RP-HPLC after sodium ascorbate reduction; type: physicochemical; conditions: acetonitrile-water, HPLC 280 nm
Protocol: The remarkable anticancer activity of cisplatin is due to its inherent proficiency to bind with the N7 position of guanine bases leading to DNA damage. To mimic the intracellular reduction of Platin-A to cisplatin and activity of generated cisplatin with DNA, Platin-A was reduced with sodium ascorbate in the presence of 2′-deoxyguanosine 5′-monophosphate sodium salt hydrate (5′-GMP) as a truncated version of DNA, and the products were analyzed by matrix-assisted laser desorption/ionization (MALDI)-time of flight (TOF)-mass spectrometry (MS). […] Binding studies with 5′-GMP provided strong evidence that cisplatin released upon reduction of Platin-A will interact with nuclear DNA efficiently. The release of the other drug, aspirin from Platin-A was analyzed by HPLC (FIG. 8). […] As time progress, formation of increasing amounts of salicylic acid, the main metabolite of aspirin was detected (FIG. 8). This observation supported the release of aspirin moiety from Platin-A in its pristine form or its final metabolite form for COX inhibitory and anti-inflammatory activities, respectively.
The ability of Platin-A to release aspirin under reducing atmosphere was studied RP-HPLC. Reduction of Platin-A (2.97 mg, 2 mM) was carried out using sodium ascorbate (5.28 mg, 10 mM) in acetonitrile-water (1:2, 3 mL) and reduction product was examined by HPLC. […]

CC(=O)Oc1ccccc1C(=O)[O][Pt]([NH2])([NH2])([OH])([Cl])[Cl] [Platin-A]
apoptosis induction (annexin V/PI) [1]: High level of apoptosis was induced
release of aspirin upon reduction [2]: initially produces aspirin upon reduction
